≈ marks a conversion by molar mass, not a printed value. Where two headings read alike, the source gives them in different places.
Assays:
[1] = system: DR-VRE from EFS.807 EFS.2731; assay: microbe, parasite or virus in culture; settings: for MIC: Enterococcus faecalis, VRE, read-out: Minimum inhibitory concentration (MIC)
Protocol: (§1) The activity of paenibacterin against several strains of Gram-positive and Gram-negative foodborne pathogens is summarized in Table 10. The data is reported as minimum inhibitory concentrations (MIC) as an average of three replicates for paenibacterin against the various listed bacterial strains. […] MICs were determined according to the CLSI broth microdilution method (see, Clinical and Laboratory Standards Institute (CLSI). 2009. Methods for dilution antimicrobial susceptibility tests for bacteria that grow aerobically; approved standard. […]. CLSI, Wayne, Pa.). Briefly, HPLC-purified paenibacterin was dissolved in methanol and diluted to appropriate concentration with cation-adjusted Mueller-Hinton II broth (Difco). Aliquots (25 μl) of serially-diluted paenibacterin was dispensed into wells of a 96-well plate; an equal amount of 1/10 diluted overnight bacterial culture was added to wells. Plates were incubated at 35° C. for 24 h. Cell growth after incubation was examined and determined using a microtiter plate reader at 600 nm. Concentration of paenibacterin is determined based on a molecular weight of 1604 Da.
(§2) The activity of paenibacterin was further tested against clinical isolates of the following Gram-positive bacteria: methicillin-sensitive Staphylococcus aureus (MSSA), methicillin-resistant S. aureus (MRSA), vancomycin-sensitive Enterococcus faecalis, vancomycin-resistant E. faecalis (VRE), Streptococcus pneumoniae, and laboratory derived daptomycin-resistant (DR) MSSA, MRSA, and VRE strains. The MICs were determined using the above described CLSI broth microdilution method, in which the method was performed with non-binding surface coated (NBS) 96-well plates.

[2] = system: DR-MRSA from MW2 SP SAU.1616; assay: microbe, parasite or virus in culture; settings: for MIC: Staphylococcus aureus, MRSA, read-out: Minimum inhibitory concentration (MIC)
Protocol: as §1, §2

[3] = system: DS-VRE ATCC 700802 EFS.807; assay: microbe, parasite or virus in culture; settings: for MIC: Enterococcus faecalis, ATCC700802|VRE, read-out: Minimum inhibitory concentration (MIC)
Protocol: as §1, §2

WT ATCC 49619 SPN.31 = assay: microbe, parasite or virus in culture; settings: for MIC: Streptococcus pneumoniae, ATCC49619, read-out: Minimum inhibitory concentration (MIC)
Protocol: as §1, §2

WT ATCC 29212 EFS.43 = assay: microbe, parasite or virus in culture; settings: for MIC: Enterococcus faecalis, ATCC29212, read-out: Minimum inhibitory concentration (MIC)
Protocol: as §1, §2

MSSA ATCC 29213 SAU.42 = assay: microbe, parasite or virus in culture; settings: for MIC: Staphylococcus aureus, ATCC29213|MSSA, read-out: Minimum inhibitory concentration (MIC)
Protocol: as §1, §2

MRSA ATCC 43300 SAU.399 = assay: microbe, parasite or virus in culture; settings: for MIC: Staphylococcus aureus, ATCC43300|MRSA, read-out: Minimum inhibitory concentration (MIC)
Protocol: as §1, §2

[4] = system: DR-MSSA from SAU.42 SAU.278; assay: microbe, parasite or virus in culture; settings: for MIC: Staphylococcus aureus, MSSA, read-out: Minimum inhibitory concentration (MIC)
Protocol: as §1, §2

PMB-S, KPN.2461 = assay: MIC, CLSI broth microdilution, Gram-negative clinical isolates; assay type: cell-based, Klebsiella pneumoniae
Protocol: (§3) Plates were incubated at 35° C. for 24 h.
(§4) The activity of paenibacterin was also tested against clinical isolates of the following Gram-negative bacterial strains: four strains of the species Pseudomonas aeruginosa (PAE), three strains of the species Acinetobacter baumannii (ABA), two strains of the species Escherichia coli (ECO), and four strains of the species Klebsiella pneumoniae (KPN). Particularly, the strains of Gram-negative bacteria included polymyxin B-resistant (PMB-R) and polymyxin B-sensitive (PMB-S) strains of each above listed species. The MICs were determined using the above described CLSI broth microdilution method, in which the method was performed with both non-binding surface coated (NBS) and polystyrene (PS) 96-well plates (Tables 11 and 12, respectively). The MICs were generally lower in the NBS 96-well plates as compared to the PS 96-well plates.

KPN.674 = assay: as above; assay type: cell-based, Klebsiella pneumoniae; settings: Klebsiella pneumoniae, read-out: Minimum inhibitory concentration (MIC)
Protocol: as §3, §4

PMB-R, KPN.2463 = assay: as above; assay type: cell-based, Klebsiella pneumoniae
Protocol: as §3, §4

KPN.2317 = assay: as above; assay type: cell-based, Klebsiella pneumoniae; settings: Klebsiella pneumoniae, read-out: Minimum inhibitory concentration (MIC)
Protocol: as §3, §4

ECO.2276 = assay: as above; assay type: cell-based, Escherichia coli; settings: Escherichia coli, read-out: Minimum inhibitory concentration (MIC)
Protocol: as §3, §4

ATCC 25922 ECO.35 = assay: as above; assay type: cell-based, Escherichia coli; settings: Escherichia coli, read-out: Minimum inhibitory concentration (MIC)
Protocol: as §3, §4

ABA.1570 = assay: as above; assay type: cell-based, Acinetobacter baumannii; settings: Acinetobacter baumannii, read-out: Minimum inhibitory concentration (MIC)
Protocol: as §3, §4

ABA.2232 = assay: as above; assay type: cell-based, Acinetobacter baumannii; settings: Acinetobacter baumannii, read-out: Minimum inhibitory concentration (MIC)
Protocol: as §3, §4

ABA.2315 = assay: as above; assay type: cell-based, Acinetobacter baumannii
Protocol: as §3, §4

PAE.44 = assay: as above; assay type: cell-based, Pseudomonas aeruginosa
Protocol: as §3, §4

PAE.2281 = assay: as above; assay type: cell-based, Pseudomonas aeruginosa; settings: Pseudomonas aeruginosa, read-out: Minimum inhibitory concentration (MIC)
Protocol: as §3, §4

PAE.2325 = assay: as above; assay type: cell-based, Pseudomonas aeruginosa; settings: Pseudomonas aeruginosa, read-out: Minimum inhibitory concentration (MIC)
Protocol: as §3, §4

PAE.999 = assay: as above; assay type: cell-based, Pseudomonas aeruginosa; settings: Pseudomonas aeruginosa, read-out: Minimum inhibitory concentration (MIC)
Protocol: as §3, §4

For `CN[C@H](CC(C)C)C(=O)N[C@H]1C(=O)N[C@@H](CC(N)=O)C(=O)N[C@H]2C(=O)N[C@H]3C(=O)N[C@H](C(=O)N[C@H](C(=O)O)c4cc(O)cc(O)c4-c4cc3ccc4O)[C@H](O)c3ccc(c(Cl)c3)Oc3cc2cc(c3O[C@@H]2O[C@H](CO)[C@@H](O)[C@H](O)[C@H]2O[C@H]2C[C@](C)(N)[C@H](O)[C@H](C)O2)Oc2ccc(cc2Cl)[C@H]1O` [vancomycin], the MIC [1] was 32 µg/mL (≈ 22.1 µM), the MIC [2] was 2 µg/mL (≈ 1.38 µM) and the MIC [3] was 16 to 32 µg/mL (≈ 11 to 22.1 µM). The MIC (WT ATCC 49619 SPN.31) was 16 µg/mL (≈ 11 µM), the MIC (WT ATCC 29212 EFS.43) was 2 to 4 µg/mL (≈ 1.38 to 2.76 µM) and the MIC (MSSA ATCC 29213 SAU.42) was 1 µg/mL (≈ 0.69 µM). For the same molecule, the MIC (MRSA ATCC 43300 SAU.399) was 2 µg/mL (≈ 1.38 µM) and the MIC [4] was 2 µg/mL (≈ 1.38 µM).

For `NC[C@H]1O[C@H](O[C@H]2[C@H](O)[C@@H](O[C@H]3O[C@H](CO)[C@@H](O)[C@H](N)[C@H]3O)[C@H](N)C[C@@H]2N)[C@H](N)C[C@@H]1O` [tobramycin], the “Minimum inhibitory concentration (MIC)” value (PMB-S, KPN.2461; KPN.2461, PS 96-well plates) was 32 µg/mL (≈ 68.4 µM), the MIC (PMB-S, KPN.2461; Klebsiella pneumoniae, KPN.2461 (PMB-S), NBS 96-well plates, read-out: Minimum inhibitory concentration (MIC)) was 32 µg/mL (≈ 68.4 µM) and the MIC (KPN.674; NBS 96-well plates) was 8 µg/mL (≈ 17.1 µM). The MIC (KPN.674; PS 96-well plates) was 8 µg/mL (≈ 17.1 µM), the “Minimum inhibitory concentration (MIC)” value (PMB-R, KPN.2463; KPN.2463, PS 96-well plates) was 32 µg/mL (≈ 68.4 µM) and the MIC (PMB-R, KPN.2463; Klebsiella pneumoniae, KPN.2463 (PMB-R), NBS 96-well plates, read-out: Minimum inhibitory concentration (MIC)) was 32 µg/mL (≈ 68.4 µM). It also gave an MIC (KPN.2317; NBS 96-well plates) of over 32 µg/mL, an MIC (KPN.2317; PS 96-well plates) of over 32 µg/mL and an MIC (ECO.2276; NBS 96-well plates) of 1 to 2 µg/mL (≈ 2.14 to 4.28 µM). It also gave an MIC (ECO.2276; PS 96-well plates) of 2 µg/mL (≈ 4.28 µM), an MIC (ATCC 25922 ECO.35; ATCC25922, ECO.35 (ATCC 25922), NBS 96-well plates) of 1 µg/mL (≈ 2.14 µM) and an MIC (ATCC 25922 ECO.35; ATCC25922, ECO.35, PS 96-well plates) of 1 µg/mL (≈ 2.14 µM). The MIC (ABA.1570; NBS 96-well plates) was 32 µg/mL (≈ 68.4 µM), the MIC (ABA.1570; PS 96-well plates) was 16 µg/mL (≈ 34.2 µM) and the MIC (ABA.2232; NBS 96-well plates) was 0.5 µg/mL (≈ 1.07 µM). The MIC (ABA.2232; PS 96-well plates) was 1 µg/mL (≈ 2.14 µM), the MIC (ABA.2315; Acinetobacter baumannii, NBS 96-well plates, read-out: Minimum inhibitory concentration (MIC)) was over 32 µg/mL and the “Minimum inhibitory concentration (MIC)” value (ABA.2315; PS 96-well plates) was over 32 µg/mL. The MIC [1] was over 32 µg/mL, the MIC [2] was 0.5 µg/mL (≈ 1.07 µM) and the MIC [3] was over 32 µg/mL. For the same molecule, the MIC (WT ATCC 49619 SPN.31) was 0.25 µg/mL (≈ 0.535 µM), the MIC (WT ATCC 29212 EFS.43) was 8 µg/mL (≈ 17.1 µM) and the MIC (MSSA ATCC 29213 SAU.42) was 0.5 µg/mL (≈ 1.07 µM). The MIC (MRSA ATCC 43300 SAU.399) was over 32 µg/mL, the MIC [4] was 0.5 µg/mL (≈ 1.07 µM) and the MIC (PAE.44; Pseudomonas aeruginosa, non-binding surface coated (NBS) 96-well plates, read-out: Minimum inhibitory concentration (MIC)) was 0.5 µg/mL (≈ 1.07 µM). The “Minimum inhibitory concentration (MIC)” value (PAE.44; polystyrene (PS) 96-well plates) was 0.5 µg/mL (≈ 1.07 µM), the MIC (PAE.2281; NBS 96-well plates) was 1 to 2 µg/mL (≈ 2.14 to 4.28 µM) and the MIC (PAE.2281; PS 96-well plates) was 1 µg/mL (≈ 2.14 µM). For the same molecule, the MIC (PAE.2325; NBS 96-well plates) was over 32 µg/mL, the MIC (PAE.2325; PS 96-well plates) was over 32 µg/mL and the MIC (PAE.999; NBS 96-well plates) was 32 µg/mL (≈ 68.4 µM). The MIC (PAE.999; PS 96-well plates) was over 32 µg/mL.

`CCCCCCCCCC(=O)N[C@@H](Cc1c[nH]c2ccccc12)C(=O)N[C@H](CC(N)=O)C(=O)N[C@@H](CC(=O)O)C(=O)N[C@@H]1C(=O)NCC(=O)N[C@@H](CCCN)C(=O)N[C@@H](CC(=O)O)C(=O)N[C@H](C)C(=O)N[C@@H](CC(=O)O)C(=O)NCC(=O)N[C@H](CO)C(=O)N[C@@H]([C@H](C)CC(=O)O)C(=O)N[C@@H](CC(=O)c2ccccc2N)C(=O)O[C@@H]1C` [daptomycin] was tested, and the “Minimum inhibitory concentration (MIC)” value ([1]; EFS.2731, DR-VRE from EFS.807, NBS 96-well plates) was over 32 µg/mL, the “Minimum inhibitory concentration (MIC)” value ([2]; SAU.1616, DR-MRSA from MW2 SP, NBS 96-well plates) was 16 µg/mL (≈ 9.87 µM) and the “Minimum inhibitory concentration (MIC)” value ([3]; ATCC 700802) was 1 µg/mL (≈ 0.617 µM). For the same molecule, the “Minimum inhibitory concentration (MIC)” value (WT ATCC 49619 SPN.31; ATCC 49619) was 0.5 µg/mL (≈ 0.309 µM), the “Minimum inhibitory concentration (MIC)” value (WT ATCC 29212 EFS.43; ATCC 29212) was 2 µg/mL (≈ 1.23 µM) and the “Minimum inhibitory concentration (MIC)” value (MSSA ATCC 29213 SAU.42; ATCC 29213) was 0.5 µg/mL (≈ 0.309 µM). For the same molecule, the “Minimum inhibitory concentration (MIC)” value (MRSA ATCC 43300 SAU.399; ATCC 43300) was 0.5 µg/mL (≈ 0.309 µM) and the “Minimum inhibitory concentration (MIC)” value ([4]; SAU.278, DR-MSSA from SAU.42, NBS 96-well plates) was 8 µg/mL (≈ 4.94 µM).
